Ki data for one molecule are collected here from BindingDB's records for patent US10487086 (Bristol Myers Squibb, 2019).

The test addresses Coagulation factor XI (Homo sapiens, UniProt P03951). Briefly: Factor XIa assay. The protocol: The effectiveness of compounds of the present invention as inhibitors of the coagulation Factors XIa, VIIa, IXa, Xa, XIIa, plasma kallikrein or thrombin, can be determined using a relevant purified serine protease, respectively, and an appropriate synthetic substrate. The rate of hydrolysis of the chromogenic or fluorogenic substrate by the relevant serine protease was measured both in the absence and presence of compounds of the present invention. […] A decrease in the rate of absorbance or fluorescence change in the presence of inhibitor is indicative of enzyme inhibition. Such methods are known to one skilled in the art. […] Determinations were made using purified human Factor XIa at a final concentration of 25-200 pM (Haematologic Technologies) and the synthetic substrate S-2366 (pyroGlu-Pro-Arg-pNA; CHROMOGENIX or AnaSpec) at a concentration of 0.0002-0.001 M.

Coagulation factor XI, sequence (P03951 19-387 limits assumed): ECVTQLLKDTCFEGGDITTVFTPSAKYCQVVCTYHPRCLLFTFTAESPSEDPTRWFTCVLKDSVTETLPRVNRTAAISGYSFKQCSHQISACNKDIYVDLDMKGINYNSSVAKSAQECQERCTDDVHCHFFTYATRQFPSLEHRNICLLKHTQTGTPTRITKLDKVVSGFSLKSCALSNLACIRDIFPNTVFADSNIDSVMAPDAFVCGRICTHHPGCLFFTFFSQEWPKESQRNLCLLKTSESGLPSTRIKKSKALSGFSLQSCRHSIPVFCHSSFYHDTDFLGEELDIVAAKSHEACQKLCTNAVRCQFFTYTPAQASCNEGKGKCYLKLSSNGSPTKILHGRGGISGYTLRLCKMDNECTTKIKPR
Coagulation factor XI, sequence (P03951 388-625 limits assumed): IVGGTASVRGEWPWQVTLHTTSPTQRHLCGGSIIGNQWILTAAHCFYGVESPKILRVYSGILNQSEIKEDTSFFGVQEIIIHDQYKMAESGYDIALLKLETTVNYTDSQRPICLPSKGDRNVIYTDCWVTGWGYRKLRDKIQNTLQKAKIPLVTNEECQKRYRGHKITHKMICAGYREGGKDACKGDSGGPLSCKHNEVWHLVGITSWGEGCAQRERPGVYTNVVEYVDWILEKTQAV

Take `COC(=O)Nc1ccc2c(c1)N[C@@H](C(=O)O)CCCC[C@H](NC(=O)/C=C/c1cc(Cl)ccc1-n1cnnn1)c1nc-2c[nH]1` [US10487086, Example I-84]: the affinity corresponds to a Ki of 580 nM.

The term Ki denotes a measure of affinity in units of concentration, obtained from inhibition or displacement.
